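In this assay, cells in 96-well plates receive the compound at five concentrations for 48 hours. Endpoints are linearly interpolated between the surrounding concentrations. The concentration for 50% growth inhibition is given as GI50.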 Activity calls are given as the source filed them. Cut-off read from the data, not from the text of the source: active = GI50 up to about 1.1 µM and inactive = higher.
How the values were obtained:
Test in all cases: NCI anticancer screen, dose series, 48 h
[1] = test system: A498
[2] = test system: A549
[3] = test system: CAKI-1
[4] = test system: CCRF-CEM
[5] = test system: COLO 205
[6] = test system: DLD-1
[7] = test system: DMS-273
[8] = test system: EKVX
[9] = test system: HCC 2998
[10] = test system: HCT-116
[11] = test system: HCT-15
[12] = test system: HL-60
[13] = test system: HOP-18
[14] = test system: HOP-62
[15] = test system: HOP-92
[16] = test system: HT-29
[17] = test system: IGROV-1
[18] = test system: K562
[19] = test system: KM-20L2
[20] = test system: KM12
[21] = test system: LOX IMVI
[22] = test system: M19-MEL
[23] = test system: MCF7
[24] = test system: MOLT-4
[25] = test system: Malme-3M
[26] = test system: NCI-H226
[27] = test system: NCI-H23
[28] = test system: NCI-H460
[29] = test system: NCI-H522
[30] = test system: NCI/ADR-RES
[31] = test system: OVCAR-3
[32] = test system: OVCAR-4
[33] = test system: OVCAR-5
[34] = test system: OVCAR-8
[35] = test system: RPMI-8226
[36] = test system: SF-268
[37] = test system: SF-295
[38] = test system: SF-539
[39] = test system: SK-MEL-28
[40] = test system: SK-MEL-2
[41] = test system: SK-MEL-5
[42] = test system: SK-OV-3
[43] = test system: SN12C
[44] = test system: SNB-19
[45] = test system: SNB-75
[46] = test system: SNB-78
[47] = test system: SW-620
[48] = test system: U-251
[49] = test system: UACC-257
[50] = test system: UACC-62
[51] = test system: UO-31
[52] = test system: XF498
[53] = test system: 786-0
[54] = test system: ACHN
[55] = test system: DMS-114
[56] = test system: LXFL 529
[57] = test system: M14
[58] = test system: RXF 393
[59] = test system: SR
[60] = test system: TK-10

**Q.** What does the source list for `O=C(NC(Cc1ccc(I)cc1)C(=O)O)c1ccc(Cl)cc1` (configuration not stated)?
**A.** GI50 [1]: > 100 µM (inactive); GI50 [2]: > 100 µM (inactive); GI50 [3]: > 100 µM (inactive); GI50 [4]: > 81.5 µM (inactive); GI50 [5]: > 100 µM (inactive); GI50 [6]: > 100 µM (inactive); GI50 [7]: > 100 µM (inactive); GI50 [8]: > 67.8 µM (inactive); GI50 [9]: > 38.8 µM (inactive); GI50 [10]: > 100 µM (inactive); GI50 [11]: > 100 µM; GI50 [12]: > 100 µM (inactive); GI50 [13]: > 100 µM (inactive); GI50 [14]: > 100 µM (inactive); GI50 [15]: 67.8 µM (inactive); GI50 [16]: > 100 µM (inactive); GI50 [17]: > 100 µM (inactive); GI50 [18]: > 100 µM (inactive); GI50 [19]: > 100 µM (inactive); GI50 [20]: > 100 µM (inactive); GI50 [21]: > 100 µM (inactive); GI50 [22]: > 100 µM (inactive); GI50 [23]: 37.8 µM (inactive); GI50 [24]: > 74.3 µM (inactive); GI50 [25]: 89.7 µM (inactive); GI50 [26]: > 100 µM (inactive); GI50 [27]: > 100 µM (inactive); GI50 [28]: > 100 µM (inactive); GI50 [29]: 74.3 µM (inactive); GI50 [30]: > 100 µM (inactive); GI50 [31]: > 88.5 µM (inactive); GI50 [32]: > 66.8 µM (inactive); GI50 [33]: > 100 µM (inactive); GI50 [34]: > 100 µM (inactive); GI50 [35]: 59.3 µM (inactive); GI50 [36]: > 100 µM (inactive); GI50 [37]: > 100 µM (inactive); GI50 [38]: > 77.1 µM (inactive); GI50 [39]: > 100 µM (inactive); GI50 [40]: > 100 µM (inactive); GI50 [41]: > 100 µM (inactive); GI50 [42]: > 100 µM (inactive); GI50 [43]: > 100 µM (inactive); GI50 [44]: > 100 µM (inactive); GI50 [45]: 87.3 µM (inactive); GI50 [46]: > 100 µM (inactive); GI50 [47]: > 100 µM (inactive); GI50 [48]: > 100 µM (inactive); GI50 [49]: > 100 µM (inactive); GI50 [50]: 74.8 µM (inactive); GI50 [51]: > 100 µM (inactive); GI50 [52]: > 80.9 µM (inactive)

**Q.** What does the source list for `[O-][Cl+3]([O-])([O-])[O-].c1ccc(C[P+]2(c3ccccc3)CCCCC2)cc1`?
**A.** GI50 [53]: > 100 µM (inactive); GI50 [1]: > 100 µM (inactive); GI50 [2]: > 100 µM (inactive); GI50 [54]: > 100 µM (inactive); GI50 [4]: > 100 µM (inactive); GI50 [5]: 34 µM (inactive); GI50 [6]: > 100 µM (inactive); GI50 [55]: 48.5 µM (inactive); GI50 [7]: 79.3 µM (inactive); GI50 [8]: > 100 µM (inactive); GI50 [9]: 70.8 µM (inactive); GI50 [10]: 23.7 µM (inactive); GI50 [11]: > 100 µM; GI50 [12]: 29.4 µM (inactive); GI50 [13]: > 100 µM (inactive); GI50 [14]: > 100 µM (inactive); GI50 [16]: 72.8 µM (inactive); GI50 [17]: > 100 µM (inactive); GI50 [18]: > 100 µM (inactive); GI50 [19]: > 100 µM (inactive); GI50 [20]: > 100 µM (inactive); GI50 [21]: 85.1 µM (inactive); GI50 [56]: 38.3 µM (inactive); GI50 [57]: > 100 µM (inactive); GI50 [22]: 28.8 µM (inactive); GI50 [24]: > 100 µM (inactive); GI50 [25]: > 100 µM (inactive); GI50 [26]: > 100 µM (inactive); GI50 [27]: > 100 µM (inactive); GI50 [28]: > 100 µM (inactive); GI50 [29]: 34.5 µM (inactive); GI50 [31]: 73.1 µM (inactive); GI50 [32]: > 100 µM (inactive); GI50 [33]: > 100 µM (inactive); GI50 [34]: > 100 µM (inactive); GI50 [35]: 34.7 µM (inactive); GI50 [58]: > 100 µM (inactive); GI50 [37]: > 100 µM (inactive); GI50 [38]: > 100 µM (inactive); GI50 [39]: > 100 µM (inactive); GI50 [40]: 95.5 µM (inactive); GI50 [41]: 28.7 µM (inactive); GI50 [42]: > 100 µM (inactive); GI50 [43]: > 100 µM (inactive); GI50 [44]: > 100 µM (inactive); GI50 [45]: 88.9 µM (inactive); GI50 [46]: > 100 µM (inactive); GI50 [59]: 86.7 µM (inactive); GI50 [47]: > 100 µM (inactive); GI50 [60]: > 100 µM (inactive); GI50 [48]: 38.4 µM (inactive); GI50 [49]: 34.4 µM (inactive); GI50 [50]: 61.7 µM (inactive); GI50 [51]: > 100 µM (inactive); GI50 [52]: 33.6 µM (inactive)
